Peptide text beside a SMILES is read from it.

Data set [1] can be described thus: Peptide hydrophobicity by RP-HPLC retention. The class given is physicochemical. As to conditions: for tR (relative hydrophobicity by RP-HPLC): Zorbax SB-300 C8, 0.25% B/min from 10% B, 0.3 ml/min, 30° C.; for ΔtR (Lys): retention time difference to the Lys13/Lys16 parent peptide. The text has this:
Retention behavior in RP-HPLC is an excellent method to represent overall peptide hydrophobicity. Retention times of peptides are highly sensitive to the conformational status of the peptides upon interaction with the hydrophobic environment of the column matrix^17,26. The non-polar faces of amphipathic alpha-helical and amphipathic cyclic beta-sheet peptides represent a preferred binding domain for interaction with the hydrophobic matrix of the reversed-phase column^27. In this study, the observed peptide hydrophobicity was determined by RP-HPLC retention time as described below and are relative hydrophobicities because they are dependent on the TFA concentration and organic solvent in the mobile phase, gradient rate, temperature, flow rate and the column used. Analytical Purification by Reversed-phase Chromatography: Analytical RP-HPLC: Column: Zorbax SB-300 C8 (150×2.1 mm ID; 5-μm particle size; 300 Å pore size). Conditions: linear AB gradient (0.25% B/min from 10% B) at a flow-rate of 0.3 ml/min, where Eluent A is 0.2% aq. TFA and Eluent B is 0.18% TFA in acetonitrile; 30° C.

Another data set concerns Human erythrocytes. The data set can be described thus: Haemolysis assay using human blood. To be noted: red cells of human, 1 h. The class given is cell-based. As for the experimental part:
To determine the extent of haemolytic activity (the ability to lyse red blood cells) in test peptides, a haemolysis assay was conducted using human blood (BioIVT, West Sussex, UK). Human erythrocytes were exposed to a single fixed concentration or a range of concentrations as to determine the % haemolysis (fixed concentration) or the concentration at which 50% haemolysis occurred (HC50), respectively. Prior to the assay, whole human blood was repeatedly washed in phosphate buffered saline (PBS) under cooled conditions to remove the buffy coat, plasma and cell debris. Washed erythrocytes were diluted as to achieve 1×10^8 cells/mL in PBS. Prepared human erythrocyte samples were combined with peptide at a single fixed concentration of 128 μg/mL, or a range of concentrations (two-fold dilution series) from 1000-31.25 μg/mL. Positive and negative controls containing 2% (v/v) Triton X-100 and PBS alone, respectively, were also prepared. Samples were incubated at 37° C. for 1 hour and then centrifuged to collect intact erythrocytes. Haemoglobin release was determined by recording the optical density of the supernatant at 540 nm. Optical density values were transformed to a percentage of the positive control. Results were recorded as a percentage haemolysis at 128 μg/mL, or by plotting the percentage haemolysis versus concentration and extrapolating the HC50 using linear regression analysis (Table 2 above)
The therapeutic index is a widely-accepted parameter to represent the specificity of antimicrobial peptides for prokaryotic versus eukaryotic cells. It is calculated by the ratio of hemolytic activity and antimicrobial activity (MIC) (Table 2 above); thus, larger values of therapeutic index indicate greater specificity for prokaryotic cells. With the peptides used in this study the inventors used the HC50/MIC ratio value to calculate the therapeutic index.

For data set [2], the system named is Pseudomonas aeruginosa ATCC 27853. The class given is cell-based. As to conditions: ATCC 27853. As for the experimental part:
(§1) Bacterial strains were acquired from the American Type Culture Collection (ATCC, Virginia, USA) and the National Collection of Type Cultures (NCTC, Public Health England, Salisbury, UK). Minimum Inhibitory Concentration (MIC) of peptides versus gram-negative strains-Acinetobacter baumannii NCTC 13420, and Pseudomonas aeruginosa ATCC 27853 and gram-positive strain Staphylococcus aureus ATCC 29213, were determined by broth microdilution as per the guidelines of the Clinical and Laboratory Standards Institute (“Methods for Dilution Antimicrobial Susceptibility Tests for Bacteria That Grow Aerobically”; Approved Standard-Ninth Edition. CLSI document M07-A9, 2012). Peptides were dissolved in sterile distilled water, which was also used as the drug-free vehicle control when determining peptide MICs. Prior to use in the MIC protocol, bacterial strains were grown on Mueller Hinton agar at 37° C. in an ambient atmosphere. […] A fixed inoculum of the test microorganism (5×10^5 cells/mL) is also added to the plate. The MIC is determined as the lowest concentration of compound that inhibits visible bacterial growth following incubation at 37° C. for 16-20 hours. A difference in MIC of two-fold between experimental replicates is considered to be within the normal variability of this protocol.

Data set [3] concerns Acinetobacter baumannii NCTC 13420. The format is cell-based. As to conditions: NCTC 13420. As for the experimental part:
as §1

Take `CC(=O)N[C@H](CCCCN)C(=O)N[C@H](CC(C)C)C(=O)N[C@H](CCCCN)C(=O)N[C@H](CCCCN)C(=O)N[C@H](CC(C)C)C(=O)N[C@H](CC(C)C)C(=O)N[C@H](CCCCN)C(=O)N[C@H](CCCCN)C(=O)N[C@H](CC(C)C)C(=O)N[C@H](CO)C(=O)N[C@H](CO)C(=O)N[C@H](C)C(=O)N[C@H](CCN)C(=O)N[C@H](CO)C(=O)N[C@H](CO)C(=O)N[C@H](CCN)C(=O)N[C@H](CC(C)C)C(=O)N[C@H](CO)C(=O)N[C@@H](C(=O)N[C@H](CC(C)C)C(=O)N[C@H](CC(C)C)C(=O)N[C@H](CCCCN)C(=O)N[C@H](CCCCN)C(=O)N[C@H](CC(C)C)C(=O)N[C@H](CCCCN)C(=O)N[C@H](CCCCN)C(N)=O)[C@H](C)O` [compound 15] (HELM PEPTIDE1{[ac].[dK].[dL].[dK].[dK].[dL].[dL].[dK].[dK].[dL].[dS].[dS].[dA].[NCC[C@@H](N[*:1])C(=O)[*:2]].[dS].[dS].[NCC[C@@H](N[*:1])C(=O)[*:2]].[dL].[dS].[dT].[dL].[dL].[dK].[dK].[dL].[dK].[dK].[am]}$$$$V2.0): in data set [1], the “tR (relative hydrophobicity by RP-HPLC)” value came out at 83.40 min and the “ΔtR (Lys)” value stood at 3.97 min. The “Haemolysis HC50” value with Human erythrocytes is over 1000 µg/mL. In addition, the “P. aeruginosa ATCC27853 MIC” value in data set [2] amounted to 4 µg/mL. Besides, the “Antimicrobial Activity MIC A. baumannii NCTC13420” value in data set [3] was 2 µg/mL.
Regarding `CC(=O)N[C@H](CCCCN)C(=O)N[C@H](CC(C)C)C(=O)N[C@H](CCCCN)C(=O)N[C@H](CCCCN)C(=O)N[C@H](CC(C)C)C(=O)N[C@H](CC(C)C)C(=O)N[C@H](CCCCN)C(=O)N[C@H](CCCCN)C(=O)N[C@H](CC(C)C)C(=O)N[C@H](CO)C(=O)N[C@H](CO)C(=O)N[C@H](C)C(=O)N[C@H](CN)C(=O)N[C@H](CO)C(=O)N[C@H](CO)C(=O)N[C@H](CN)C(=O)N[C@H](CC(C)C)C(=O)N[C@H](CO)C(=O)N[C@@H](C(=O)N[C@H](CC(C)C)C(=O)N[C@H](CC(C)C)C(=O)N[C@H](CCCCN)C(=O)N[C@H](CCCCN)C(=O)N[C@H](CC(C)C)C(=O)N[C@H](CCCCN)C(=O)N[C@H](CCCCN)C(N)=O)[C@H](C)O` [compound 16] (HELM PEPTIDE1{[ac].[dK].[dL].[dK].[dK].[dL].[dL].[dK].[dK].[dL].[dS].[dS].[dA].[NC[C@@H](N[*:1])C(=O)[*:2]].[dS].[dS].[NC[C@@H](N[*:1])C(=O)[*:2]].[dL].[dS].[dT].[dL].[dL].[dK].[dK].[dL].[dK].[dK].[am]}$$$$V2.0), in data set [1], the “tR (relative hydrophobicity by RP-HPLC)” value is 84.06 min and the “ΔtR (Lys)” value is on record as 3.31 min. For the same compound, in the data set with Human erythrocytes, the “Haemolysis HC50” value was over 1000 µg/mL. Besides, in data set [2], the “P. aeruginosa ATCC27853 MIC” value is 4 µg/mL. The “Antimicrobial Activity MIC A. baumannii NCTC13420” value in data set [3] worked out at 2 µg/mL.
As for `CC(=O)N[C@H](C)C(=O)N[C@H](CC(C)C)C(=O)N[C@H](CCCCN)C(=O)N[C@H](CCCCN)C(=O)N[C@H](CC(C)C)C(=O)N[C@H](CC(C)C)C(=O)N[C@H](CCCCN)C(=O)N[C@H](CCCCN)C(=O)N[C@H](CC(C)C)C(=O)N[C@H](CO)C(=O)N[C@H](CO)C(=O)N[C@H](C)C(=O)N[C@H](CCCN)C(=O)N[C@H](CO)C(=O)N[C@H](CO)C(=O)N[C@H](CCCN)C(=O)N[C@H](CC(C)C)C(=O)N[C@H](CO)C(=O)N[C@@H](C(=O)N[C@H](CC(C)C)C(=O)N[C@H](CC(C)C)C(=O)N[C@H](CCCCN)C(=O)N[C@H](CCCCN)C(=O)N[C@H](CC(C)C)C(=O)N[C@H](CCCCN)C(=O)N[C@H](CCCCN)C(N)=O)[C@H](C)O` [compound 19] (HELM PEPTIDE1{[ac].[dA].[dL].[dK].[dK].[dL].[dL].[dK].[dK].[dL].[dS].[dS].[dA].[NCCC[C@@H](N[*:1])C(=O)[*:2]].[dS].[dS].[NCCC[C@@H](N[*:1])C(=O)[*:2]].[dL].[dS].[dT].[dL].[dL].[dK].[dK].[dL].[dK].[dK].[am]}$$$$V2.0), in data set [1], the “tR (relative hydrophobicity by RP-HPLC)” value is 91.57 min and the “ΔtR (Lys)” value is recorded as 2.94 min. For the same compound, the “Haemolysis HC50” value in the data set on Human erythrocytes is over 1000 µg/mL. The “P. aeruginosa ATCC27853 MIC” value in data set [2] was determined as 4 µg/mL. In data set [3], the “Antimicrobial Activity MIC A. baumannii NCTC13420” value was found to be 2 µg/mL.
On to `CC(=O)N[C@H](C)C(=O)N[C@H](CC(C)C)C(=O)N[C@H](CCCCN)C(=O)N[C@H](CCCCN)C(=O)N[C@H](CC(C)C)C(=O)N[C@H](CC(C)C)C(=O)N[C@H](CCCCN)C(=O)N[C@H](CCCCN)C(=O)N[C@H](CC(C)C)C(=O)N[C@H](CO)C(=O)N[C@H](CO)C(=O)N[C@H](C)C(=O)N[C@H](CCN)C(=O)N[C@H](CO)C(=O)N[C@H](CO)C(=O)N[C@H](CCN)C(=O)N[C@H](CC(C)C)C(=O)N[C@H](CO)C(=O)N[C@@H](C(=O)N[C@H](CC(C)C)C(=O)N[C@H](CC(C)C)C(=O)N[C@H](CCCCN)C(=O)N[C@H](CCCCN)C(=O)N[C@H](CC(C)C)C(=O)N[C@H](CCCCN)C(=O)N[C@H](CCCCN)C(N)=O)[C@H](C)O` [compound 20] (HELM PEPTIDE1{[ac].[dA].[dL].[dK].[dK].[dL].[dL].[dK].[dK].[dL].[dS].[dS].[dA].[NCC[C@@H](N[*:1])C(=O)[*:2]].[dS].[dS].[NCC[C@@H](N[*:1])C(=O)[*:2]].[dL].[dS].[dT].[dL].[dL].[dK].[dK].[dL].[dK].[dK].[am]}$$$$V2.0), for which, in data set [1], the “tR (relative hydrophobicity by RP-HPLC)” value is reported as 91.57 min and the “ΔtR (Lys)” value was 2.94 min. For the same compound, the “Haemolysis HC50” value in the data set with Human erythrocytes is over 1000 µg/mL. The “P. aeruginosa ATCC27853 MIC” value in data set [2] was found to be 4 µg/mL. Besides, the “Antimicrobial Activity MIC A. baumannii NCTC13420” value in data set [3] amounted to 2 µg/mL.
For `CC(=O)N[C@H](C)C(=O)N[C@H](CC(C)C)C(=O)N[C@H](CCCCN)C(=O)N[C@H](CCCCN)C(=O)N[C@H](CC(C)C)C(=O)N[C@H](CC(C)C)C(=O)N[C@H](CCCCN)C(=O)N[C@H](CCCCN)C(=O)N[C@H](CC(C)C)C(=O)N[C@H](CO)C(=O)N[C@H](CO)C(=O)N[C@H](C)C(=O)N[C@H](CN)C(=O)N[C@H](CO)C(=O)N[C@H](CO)C(=O)N[C@H](CN)C(=O)N[C@H](CC(C)C)C(=O)N[C@H](CO)C(=O)N[C@@H](C(=O)N[C@H](CC(C)C)C(=O)N[C@H](CC(C)C)C(=O)N[C@H](CCCCN)C(=O)N[C@H](CCCCN)C(=O)N[C@H](CC(C)C)C(=O)N[C@H](CCCCN)C(=O)N[C@H](CCCCN)C(N)=O)[C@H](C)O` [compound 21] (HELM PEPTIDE1{[ac].[dA].[dL].[dK].[dK].[dL].[dL].[dK].[dK].[dL].[dS].[dS].[dA].[NC[C@@H](N[*:1])C(=O)[*:2]].[dS].[dS].[NC[C@@H](N[*:1])C(=O)[*:2]].[dL].[dS].[dT].[dL].[dL].[dK].[dK].[dL].[dK].[dK].[am]}$$$$V2.0), in that order: 94.92 min, 0.41 min, over 1000 µg/mL, 4 µg/mL and 2 µg/mL.

These data come from patent publication US20200377561A1, “ANTIMICROBIAL PEPTIDES AND METHODS OF TREATING GRAM-NEGATIVE PATHOGEN INFECTIONS: POLAR AND NON-POLAR FACE ANALOGS” (THE REGENTS OF THE UNIVERSITY OF COLORADO, a body corporate, priority 2017, published 2020).
